Data set [1] in a line: Compound plasma concentrations in mice at 15 min post administration. The class given is in vivo, mouse. To be noted: mouse; mice, plasma, 15 min post administration (oral dosing), mean of n = 3 mice; read-out: Plasma Mean Concentration.
Experimental: Additionally, compound concentrations were determined in the plasma and lungs of male, ovalbumin-sensitized, Balb/c mice from a murine model of asthma. Test compounds were formulated in water or 1% polysorbate 80 and dosed at 15 μmol/kg for intraperitoneal (IP) or oral (PO) administration or formulated for intratracheal (IT) administration and dosed at 5 μmol/kg, which directly targets the lungs. Following completion of the in vivo study, mice were euthanized and blood and plasma collected approximately 2.5-3 hours post administration of test compound for bronchodialator (BD) studies and 24 hours post administration for anti-inflamatory (AI) studies. Lungs were homogenized in Matrix A lysing tubes using a FastPrep 24 tissue and cell homogenizer (MP Biomedicals, Solon, Ohio). Both plasma samples and lung extracts were assayed for compound concentrations using an on-line, solid phase extraction LC/MS/MS system.
Data set [2] deals with ovalbumin-sensitized mice. Nature of the data set: Prevention of airway hyperreactivity development, anti-inflammatory dosing paradigm (Penh). The class given is in vivo, mouse. To be noted: anti-inflammatory dosing paradigm.

As for `Fc1ccc(CN2CCC[C@H](Nc3ccc4[nH]ncc4c3)C2)cc1F` [Compound 1.072], in data set [1], the concentration at 15 min came to 1770 nM.

As for `Cc1ccc(CN2CCC[C@H](Nc3ccc4[nH]ncc4c3)C2)cc1` [Compound 1.078], the concentration at 15 min in data set [1] was 1020 nM.

Take `OCCOc1cccc(CN2CCC[C@H](Nc3ccc4[nH]ncc4c3)C2)c1` [Compound 1.090]: the concentration at 15 min in data set [1] was found to be 5.9 nM.

As for `OCCOc1cccc(CN2CCC[C@@H](Nc3ccc4[nH]ncc4c3)C2)c1` [Compound 1.092], the concentration at 15 min in data set [1] turned out to be 314 nM.

As for `NC(=O)Cn1ccc2ccc(CN3CCC[C@@H](Nc4ccc5[nH]ncc5c4)C3)cc21` [Compound 1.106], the concentration at 15 min in data set [1] came to 441 nM.

For the molecule `NC(=O)Cn1ccc2ccc(CN3CCC[C@H](Nc4ccc5[nH]ncc5c4)C3)cc21` [Compound 1.107], the concentration at 15 min in data set [1] stood at 211 nM.

Consider `c1ccc(CN2CCC[C@@H](Nc3ccc4[nH]ncc4c3)C2)cc1` [Compound 1.110], for which the concentration at 15 min in data set [1] was 792 nM.

For the molecule `O=C(COc1cccc(CN2CCC[C@@H](Nc3ccc4[nH]ncc4c3)C2)c1)N1CCOCC1` [Compound 1.127], in data set [1], the concentration at 15 min amounted to 980 nM.

As for `Brc1ccc(CN2CCC[C@H](Nc3ccc4[nH]ncc4c3)C2)cc1` [Compound 1.142], the concentration at 15 min in data set [1] was found to be 330 nM.

On to `c1cc2cc(CN3CCC[C@@H](Nc4ccc5[nH]ncc5c4)C3)ccc2[nH]1` [Compound 1.143], for which the concentration at 15 min in data set [1] came out at 274 nM.

Consider `Oc1cccc(CN2CCC[C@@H](Nc3ccc4[nH]ncc4c3)C2)c1` [Compound 1.145], for which the concentration at 15 min in data set [1] was 109 nM.

As to `Fc1ccc(CN2CCC[C@@H](Nc3ccc4[nH]ncc4c3)C2)cc1` [Compound 1.146], the concentration at 15 min in data set [1] stood at 1260 nM.

`Cc1ccc(CN2CCC[C@H](Nc3ccc4[nH]ncc4c3)C2)cc1O` [Compound 1.151]: in data set [1], the concentration at 15 min was 479 nM.

As to `Cc1ccc(CN2CCC[C@H](Nc3ccc4[nH]ncc4c3)C2)c(C)c1` [Compound 1.155], the concentration at 15 min in data set [1] was 32.4 nM.

For `CSc1cccc(CN2CCC[C@@H](Nc3ccc4[nH]ncc4c3)C2)c1` [Compound 1.159], in data set [1], the concentration at 15 min stood at 250 nM.

As for `CCSc1ccc(CN2CCC[C@H](Nc3ccc4[nH]ncc4c3)C2)cc1` [Compound 1.168], in data set [1], the concentration at 15 min is 588 nM.

For the molecule `Clc1cccc(CN2CCC[C@H](Nc3ccc4[nH]ncc4c3)C2)c1` [Compound 1.170], the concentration at 15 min in data set [1] turned out to be 639 nM.

As to `Cc1cccc(CN2CCC[C@@H](Nc3ccc4[nH]ncc4c3)C2)c1C` [Compound 1.172], the concentration at 15 min in data set [1] came out at 111 nM.

Consider `c1cc2c(cc1CN1CCC[C@@H](Nc3ccc4[nH]ncc4c3)C1)OCCO2` [Compound 1.177], for which the concentration at 15 min in data set [1] is 283 nM.

Consider `CS(=O)(=O)c1cccc(CN2CCC[C@H](Nc3ccc4[nH]ncc4c3)C2)c1` [Compound 1.182], for which the concentration at 15 min in data set [1] was 452 nM.

Take `Brc1cccc(CN2CCC[C@H](Nc3ccc4[nH]ncc4c3)C2)c1` [Compound 1.183]: in data set [1], the concentration at 15 min was 708 nM.

`c1cc(C2CC2)ccc1CN1CCC[C@H](Nc2ccc3[nH]ncc3c2)C1` [Compound 1.185]: the concentration at 15 min in data set [1] is 1020 nM.

Turning to `Clc1cccc(CN2CCC[C@@H](Nc3ccc4[nH]ncc4c3)C2)c1` [Compound 1.191], the concentration at 15 min in data set [1] is 260 nM.

Consider `CC(=O)NCc1cccc(CN2CCC[C@@H](Nc3ccc4[nH]ncc4c3)C2)c1` [Compound 1.194], for which, in data set [1], the concentration at 15 min is 355 nM.

With `CN(c1cccc(CN2CCC[C@H](Nc3ccc4[nH]ncc4c3)C2)c1)S(C)(=O)=O` [Compound 1.198], the concentration at 15 min in data set [1] stood at 643 nM.

Regarding `c1cc(CN2CCC[C@@H](Nc3ccc4[nH]ncc4c3)C2)cc(C2CC2)c1` [Compound 1.202], the concentration at 15 min in data set [1] came to 130 nM.

With `CCOc1cccc(CN2CCC[C@@H](Nc3ccc4[nH]ncc4c3)C2)c1` [Compound 1.203], the concentration at 15 min in data set [1] was 1130 nM.

With `CC(C)c1ccc(CN2CCC[C@@H](Nc3ccc4[nH]ncc4c3)C2)cc1` [Compound 1.204], the concentration at 15 min in data set [1] was determined as 549 nM.

Regarding `C=Cc1ccc(CN2CCC[C@@H](Nc3ccc4[nH]ncc4c3)C2)cc1` [Compound 1.208], the concentration at 15 min in data set [1] is 281 nM.

For the molecule `Brc1cccc(CN2CCC[C@@H](Nc3ccc4[nH]ncc4c3)C2)c1` [Compound 1.210], the concentration at 15 min in data set [1] was 286 nM.

In the case of `OCc1ccc(CN2CCC[C@H](Nc3ccc4[nH]ncc4c3)C2)cc1` [Compound 1.223], the concentration at 15 min in data set [1] stood at 12.8 nM.

In the case of `COc1ccc(CN2CCC[C@@H](Nc3ccc4[nH]ncc4c3)C2)cc1` [Compound 1.226], the concentration at 15 min in data set [1] came out at 526 nM.

Regarding `c1ccc(CN2CCC[C@H](Nc3ccc4[nH]ncc4c3)C2)cc1` [Compound 1.227], the concentration at 15 min in data set [1] was found to be 1860 nM.

As to `C=Cc1ccc(CN2CCC[C@H](Nc3ccc4[nH]ncc4c3)C2)cc1` [Compound 1.229], the concentration at 15 min in data set [1] turned out to be 1450 nM.

With `COc1ccc(CN2CCC[C@H](Nc3ccc4[nH]ncc4c3)C2)cc1NS(C)(=O)=O` [Compound 1.234], in data set [1], the concentration at 15 min is 240 nM.

As to `Cc1ccc(CN2CC[C@@H](Nc3ccc4[nH]ncc4c3)C2)cc1` [Compound 1.242], the concentration at 15 min in data set [1] was 580 nM.

Take `COc1ccc(CN2CC[C@@H](Nc3ccc4[nH]ncc4c3)C2)cc1` [Compound 1.245]: in data set [1], the concentration at 15 min amounted to 1520 nM.

As for `c1cc2c(cc1CN1CCC[C@@H](Nc3ccc4[nH]ncc4c3)C1)CCO2` [Compound 1.246], the concentration at 15 min in data set [1] is 587 nM.

For `Clc1ccc(CN2CC[C@@H](Nc3cccc4cnccc34)C2)cc1` [Compound 2.027], in data set [1], the concentration at 15 min is 503 nM.

In the case of `OCCOc1cccc(CN2CCC[C@@H](Nc3cccc4cnccc34)C2)c1` [Compound 2.034], the concentration at 15 min in data set [1] amounted to 665 nM.

Turning to `OCCOc1cccc(CN2CCC[C@H](Nc3cccc4cnccc34)C2)c1` [Compound 2.036], the concentration at 15 min in data set [1] worked out at 1340 nM.

`O=C(COc1cccc(CN2CC[C@@H](Nc3cccc4cnccc34)C2)c1)N1CCOCC1` [Compound 2.043]: the concentration at 15 min in data set [1] was found to be 60.8 nM.

As to `c1cc(N[C@@H]2CCN(Cc3ccc4c(c3)OCCO4)C2)c2ccncc2c1` [Compound 2.056], the concentration at 15 min in data set [1] is 1260 nM.

Consider `Fc1ccc(CN2CC[C@@H](Nc3cccc4cnccc34)C2)cc1F` [Compound 2.062], for which, in data set [1], the concentration at 15 min is 660 nM.

Take `CC(=O)NCc1cccc(CN2CC[C@@H](Nc3cccc4cnccc34)C2)c1` [Compound 2.063]: the concentration at 15 min in data set [1] is 348 nM.

Consider `CC(C)(C)NCC(O)c1ccc(O)c(CO)c1` (stereo not shown) [Salbutamol, reference compound], for which the “Efficacy using the anti-inflammatory dosing paradigm” value in data set [2] is “ineffective”.

For the origin of these results see patent US8299096B2, “Method for treating pulmonary diseases using rho kinase inhibitor compounds” (priority 2008, dated 2012).
